Each block holds one compound with its values, some of them ahead of it.
Columns and labels:
[1] = target: T1, AM1 receptor (CLR-RAMP2) in HUAECs (Homo sapiens, UniProt O60895+Q16602); assay: cAMP accumulation in HUAECs; format: cell-based
T1 construct: host or cells: primary HUAECs
Method: (§1) All primary cell lines were cultured as above. On the day of the experiment media was removed and cells washed with PBS, before being dissociated with Trypsin-EDTA 0.05% (Gibco, UK) and then resuspended in PBS/BSA (0.1%) (Sigma, UK). Cells were immediately plated for use in cAMP assay as per the manufacturer’s instructions, reagents used were provided by the LANCE® cAMP detection assay kit (PerkinElmer, Boston, MA, USA), in 384 well optiplates (PerkinElmer (Boston, MA, USA)) at 2000 cells/well in 5 μl aliquots. […] Cells were incubated with compound for 30 min prior to adding detection buffer[28],[60]. Plates were incubated for a further 60 min (room temperature) and then read on a plate reader (Mithras LB 940 microplate reader (Berthold technologies, Germany)). All responses were normalised to 100μM forskolin (Tocris, UK). Antagonist studies were performed in the same way through co-stimulation of the relevant concentration. Alongside control-treated cell. Experiments with PTX (Sigma, UK) required pretreatment (16 h) prior to assays.
All sample sizes were determined, and data analysed, in accordance with the guidelines described by Curtis M et al.[65]. All experiments were appropriately controlled using ‘system pathway’ agonists. If any of these pathway controls generated inappropriate responses, then the entire data set was removed from analysis. […] Data analysis for cAMP accumulation, Ca^2+i mobilisation, NO accumulation, pERK1/2 activation, and cell proliferation assays were performed in GraphPad Prism 8.4 (GraphPad Software, San Diego). Data were fitted to obtain concentration–response curves using either the three-parameter logistic equation using to obtain values of Emax and pEC50 or the operational model of agonism. Statistical differences were analysed using one-way ANOVA followed by Dunnett’s post-hoc (for comparisons amongst more than two groups) or unpaired Student’s t test with Welch’s correction (for comparison between two groups). To account for the day-to-day variation experienced from the cultured cells, we used the maximal level of cAMP accumulation from cells in response to 100 μM forskolin stimulation was used as a reference, 10 μM ionomycin for Ca^2+i assays, 10 μM phorbol 12-myristate 13-acetate (PMA) for pERK1/2 activation, 10 μM acetylcholine for NO production and 10 μM VEGF for cell proliferation. […] Where appropriate the operational model for receptor agonism[27] was used to obtain efficacy (τ) and equilibrium disassociation constant (KA) values. In both cases, this normalisation removes the variation due to differences in days but retains the variance for control values. […] Having obtained values for τ and KA these were then used to quantify signalling bias as the change in Log(τ/KA)[19],[28]. […]

heart = details: cited from earlier work
[2] = target: T1, AM1 receptor (CLR-RAMP2) in HUAECs; assay: mobilisation of Ca2+i in HUAECs; format: cell-based
Method: All cell lines were plated at 20,000 cells/well on 96-well black clear-bottom plates (Costar, UK) 24 h before the experiment. […] Cells were then washed twice with calcium-free HBSS, then were left in 100 μl calcium-free HBSS for the duration of the assay. […] Data was normalised to the response seen with 10 μM Ionomycin.
All sample sizes were determined, and data analysed, in accordance with the guidelines described by Curtis M et al.[65]. All experiments were appropriately controlled using ‘system pathway’ agonists. If any of these pathway controls generated inappropriate responses, then the entire data set was removed from analysis. […] Data analysis for cAMP accumulation, Ca^2+i mobilisation, NO accumulation, pERK1/2 activation, and cell proliferation assays were performed in GraphPad Prism 8.4 (GraphPad Software, San Diego). Data were fitted to obtain concentration–response curves using either the three-parameter logistic equation using to obtain values of Emax and pEC50 or the operational model of agonism. Statistical differences were analysed using one-way ANOVA followed by Dunnett’s post-hoc (for comparisons amongst more than two groups) or unpaired Student’s t test with Welch’s correction (for comparison between two groups). To account for the day-to-day variation experienced from the cultured cells, we used the maximal level of cAMP accumulation from cells in response to 100 μM forskolin stimulation was used as a reference, 10 μM ionomycin for Ca^2+i assays, 10 μM phorbol 12-myristate 13-acetate (PMA) for pERK1/2 activation, 10 μM acetylcholine for NO production and 10 μM VEGF for cell proliferation. […] Where appropriate the operational model for receptor agonism[27] was used to obtain efficacy (τ) and equilibrium disassociation constant (KA) values. In both cases, this normalisation removes the variation due to differences in days but retains the variance for control values. The means of individual experiments were combined to generate the curves shown. Having obtained values for τ and KA these were then used to quantify signalling bias as the change in Log(τ/KA)[19],[28]. Error for this composite measure was propagated by applying Eq. 1.1 PooledSEM=(SEMA)^2+(SEMB)^2 Where, SEMA and SEMB are the standard error of measurement A and B.
(1 picture or pasted object on this page, not shown here)

[3] = target: T2, CGRP receptor (CLR-RAMP1) in RAMP1-HUVECs (Homo sapiens, UniProt O60894+Q16602); assay: cAMP accumulation in RAMP1-HUVECs; format: cell-based; details: RAMP1-HUVEC, 30 min, relative to 100 μM forskolin, mean ± SEM
T2 construct: biased agonism at the endogenous CLR in a physiological system; the open reading frame of RAMP1 into our HUVEC∆RAMP2 cell line; host or cells: HUVEC-∆RAMP2 (CRISPR-Cas9 RAMP2 knockout pool), lentiviral transduction, blasticidin selection
Method: Data are analysed using a three-parameter non-linear regression curve or the operational model of receptor agonism. g–h Signalling bias plots were calculated as ∆Log(τ/KA) (g) or ∆∆Log(τ/KA) (h) for each agonist and for each signalling pathway. […] All data represent mean ± SEM for n repeats.
as §1, with “Experiments with PTX (Sigma, UK) required pretreatment (16 h) prior to assays.” left out
All sample sizes were determined, and data analysed, in accordance with the guidelines described by Curtis M et al.[65]. […]

[4] = target: T3, CGRP receptor (CLR-RAMP1) in human cardiomyocytes (HCMs) (Homo sapiens, UniProt O60894+Q16602); assay: total NO production in HCMs; format: cell-based; details: HCM, 15 min, relative to 10 μM isoproterenol, mean ± SEM
T3 construct: primary human cardiomyocytes (HCMs) since these cells only expressed CLR and RAMP1; host or cells: primary human cardiomyocytes (HCMs)
Method: Data are analysed using a three-parameter non-linear regression curve or the operational model of receptor agonism. g, h Signalling bias plots were calculated as ∆Log(τ/KA) (g) or ∆∆Log(τ/KA) (h) for each agonist and for each signalling pathway. […] All data represent mean ± SEM for n repeats.
Endothelial cells and HCMs were cultured as above. 24 h prior to assay cells were plated on Costar 96-well black clear bottom plates at 40,000 cells/well. The assay was performed according to the manufacturer’s protocol. Briefly, cells pre-incubated with NO dye and assay buffer 1 (Fluorometric Nitric Oxide Assay Kit, Abcam, UK) for 30 min at 37 °C in 5% CO2. […] Stain and ligand solution was removed, assay buffer II was added, and wells were read immediately. The absorbance was measured using a Tecan T200 (Thermo Fisher Scientific UK) reader with an excitation/emission of 540/590 nm. […]
All sample sizes were determined, and data analysed, in accordance with the guidelines described by Curtis M et al.[65]. […] Statistical differences were analysed using one-way ANOVA followed by Dunnett’s post-hoc (for comparisons amongst more than two groups) or unpaired Student’s t test with Welch’s correction (for comparison between two groups). […] Having obtained values for τ and KA these were then used to quantify signalling bias as the change in Log(τ/KA)[19],[28]. […]

[5] = cAMP, HUAEC, operational model, mean ± SEM
[6] = Ca2+i, HUAEC, operational model, mean ± SEM

T1 sequence (Q16602 23-461): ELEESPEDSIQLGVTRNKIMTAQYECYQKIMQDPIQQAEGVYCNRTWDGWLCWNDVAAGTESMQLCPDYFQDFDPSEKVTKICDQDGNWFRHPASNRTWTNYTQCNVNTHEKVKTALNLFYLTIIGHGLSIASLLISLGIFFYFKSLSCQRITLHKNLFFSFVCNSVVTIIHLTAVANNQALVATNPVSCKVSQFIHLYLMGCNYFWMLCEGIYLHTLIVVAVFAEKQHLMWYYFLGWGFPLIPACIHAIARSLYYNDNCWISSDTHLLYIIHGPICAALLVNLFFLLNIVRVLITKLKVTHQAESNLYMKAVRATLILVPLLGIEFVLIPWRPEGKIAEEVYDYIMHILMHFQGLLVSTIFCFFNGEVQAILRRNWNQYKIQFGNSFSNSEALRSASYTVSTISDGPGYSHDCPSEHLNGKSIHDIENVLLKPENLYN
T1 sequence (O60895 43-175): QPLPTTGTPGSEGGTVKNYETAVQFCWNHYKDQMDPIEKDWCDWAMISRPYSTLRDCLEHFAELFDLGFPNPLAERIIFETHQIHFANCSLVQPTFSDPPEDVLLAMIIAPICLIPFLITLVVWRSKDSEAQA
T2 sequence (Q16602 23-461): as the sequence (Q16602 23-461) above
T2 sequence (O60894 27-148): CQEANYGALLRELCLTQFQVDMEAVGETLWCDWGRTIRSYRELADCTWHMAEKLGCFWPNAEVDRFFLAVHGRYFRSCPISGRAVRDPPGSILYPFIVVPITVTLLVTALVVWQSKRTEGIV
T3 sequence (Q16602 23-461): as the sequence (Q16602 23-461) above
T3 sequence (O60894 27-148): as the sequence (O60894 27-148) above

Structure (SMILES): CSCC[C@H](NC(=O)[C@H](CC(C)C)NC(=O)[C@H](CCC(N)=O)NC(=O)[C@H](Cc1c[nH]c2ccccc12)NC(=O)[C@H](CC(C)C)NC(=O)[C@H](CCCNC(=N)N)NC(=O)[C@H](Cc1c[nH]cn1)NC(=O)[C@H](CO)NC(=O)[C@H](CC(C)C)NC(=O)[C@H](CC(N)=O)NC(=O)[C@H](CCC(N)=O)NC(=O)[C@@H](NC(=O)[C@H](CCC(N)=O)NC(=O)[C@@H]1CSSC[C@H](NC(=O)CNC(=O)[C@@H](NC(=O)[C@H](CCCNC(=N)N)NC(=O)[C@H](CC(C)C)NC(=O)[C@H](CC(C)C)NC(=O)[C@H](CCC(N)=O)NC(=O)[C@H](C)NC(=O)[C@H](CCC(N)=O)NC(=O)[C@@H](N)[C@@H](C)O)C(C)C)C(=O)N[C@@H](C(C)C)C(=O)N[C@@H](CC(C)C)C(=O)NCC(=O)N[C@@H]([C@@H](C)O)C(=O)N1)C(C)C)C(=O)NCC(=O)N1CCC[C@H]1C(=O)N[C@@H](C)C(=O)NCC(=O)N[C@@H](CCCNC(=N)N)C(=O)N[C@@H](CCC(N)=O)C(=O)N[C@@H](CC(=O)O)C(=O)N[C@@H](CO)C(=O)N[C@@H](C)C(=O)N1CCC[C@H]1C(=O)N[C@H](C(=O)N[C@@H](CC(=O)O)C(=O)N1CCC[C@H]1C(=O)N[C@@H](CO)C(=O)N[C@@H](CO)C(=O)N1CCC[C@H]1C(=O)N[C@@H](Cc1c[nH]cn1)C(=O)N[C@@H](CO)C(=O)N[C@@H](Cc1ccc(O)cc1)C(N)=O)C(C)C [AM2, adrenomedullin 2]
Emax [1]: 17.5 ± 1.21%
Transducer coefficient Log(τ/KA) ([1]; cAMP, HUAEC, calculated from Table S1): 6.03±0.22
logτ [1, 5]: -0.75±0.05
pKA [1, 5]: 6.78±0.21
effect of protein kinase inhibitors on contraction effect (heart): blocked by both inhibitors of both protein kinase A and C
Emax [2]: 50.1 ± 3.22%
Transducer coefficient Log(τ/KA) ([2]; Ca2+i, HUAEC, calculated from Table S1): 7.60±0.14
logτ [2, 6]: -0.01±0.05
pKA [2, 6]: 7.61±0.13

Emax [3]: 39 ± 2.08%
Emax [4]: 47 ± 5.85%
Structure (SMILES): CC[C@H](C)[C@H](NC(=O)[C@H](CCC(N)=O)NC(=O)[C@H](Cc1c[nH]cn1)NC(=O)[C@H](C)NC(=O)[C@H](CC(C)C)NC(=O)[C@H](CCCCN)NC(=O)[C@H](CCC(N)=O)NC(=O)[C@@H](NC(=O)[C@@H](NC(=O)[C@@H]1CSSC[C@H](NC(=O)CNC(=O)[C@H](Cc2ccccc2)NC(=O)[C@H](CO)NC(=O)[C@H](CCCNC(=N)N)NC(=O)[C@H](CC(C)C)NC(=O)CNC(=O)[C@H](CCC(N)=O)NC(=O)[C@H](Cc2ccccc2)NC(=O)[C@H](CC(N)=O)NC(=O)[C@H](CC(N)=O)NC(=O)[C@H](CCSC)NC(=O)[C@H](CO)NC(=O)[C@H](CCC(N)=O)NC(=O)[C@H](CCCNC(=N)N)NC(=O)[C@@H](N)Cc2ccc(O)cc2)C(=O)N[C@@H](CCCNC(=N)N)C(=O)N[C@@H](Cc2ccccc2)C(=O)NCC(=O)N[C@@H]([C@@H](C)O)C(=O)N1)[C@@H](C)O)C(C)C)C(=O)N[C@@H](Cc1ccc(O)cc1)C(=O)N[C@@H](CCC(N)=O)C(=O)N[C@@H](Cc1ccccc1)C(=O)N[C@H](C(=O)N[C@@H](CC(=O)O)C(=O)N[C@@H](CCCCN)C(=O)N[C@@H](CC(=O)O)C(=O)N[C@@H](CCCCN)C(=O)N[C@@H](CC(=O)O)C(=O)N[C@@H](CC(N)=O)C(=O)N[C@H](C(=O)N[C@@H](C)C(=O)N1CCC[C@H]1C(=O)N[C@@H](CCCNC(=N)N)C(=O)N[C@@H](CO)C(=O)N[C@@H](CCCCN)C(=O)N[C@H](C(=O)N[C@@H](CO)C(=O)N1CCC[C@H]1C(=O)N[C@@H](CCC(N)=O)C(=O)NCC(=O)N[C@@H](Cc1ccc(O)cc1)C(N)=O)[C@@H](C)CC)C(C)C)[C@@H](C)O [AM, adrenomedullin]

From paper PMC8222276 (Communications Biology, 2021)
